Patent US6737383B1, “Herbicidal oxadiazolidines” (priority 1999, dated 2004)

What was measured:
purple nutsedge = assay: Test B pre/postemergence purple nutsedge; format: in vivo, Cyperus rotundus
Outline: (§1)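 Test chemicals in a non-phytotoxic solvent mixture with surfactant were sprayed preemergence onto planted seeds and postemergence onto plants 2 to 18 cm tall (1- to 4-leaf stage). After twelve to sixteen days in a greenhouse, injury was visually rated against untreated controls from 0 (no effect) to 10 (complete control).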

wheat = assay: Test B pre/postemergence wheat; format: in vivo, Triticum aestivum
Outline: as §1

blackgrass = assay: Test B pre/postemergence blackgrass; format: in vivo, Alopecurus myosuroides
Outline: as §1

rice = assay: Test B flood test rice; format: in vivo, Oryza sativa
Outline: (§2)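 Flood test on plants grown to the 2-leaf stage; treated plants kept in greenhouse twelve to sixteen days, then visually rated against controls on a 0 (no effect) to 10 (complete control) scale.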

smallflower flatsedge = assay: Test B flood test smallflower flatsedge; format: in vivo, Cyperus difformis
Outline: as §2

corn = assay: Test B pre/postemergence corn; format: in vivo, Zea mays
Outline: as §1

pigweed = assay: Test B pre/postemergence pigweed; format: in vivo, Amaranthus retroflexus
Outline: as §1

wild oat = assay: Test B pre/postemergence wild oat; format: in vivo, Avena fatua
Outline: as §1

sugar beet = assay: Test B pre/postemergence sugar beet; format: in vivo, Beta vulgaris
Outline: as §1

crabgrass = assay: Test B pre/postemergence crabgrass; format: in vivo, Digitaria sanguinalis
Outline: as §1

rape = assay: Test B pre/postemergence rape; format: in vivo, Brassica napus
Outline: as §1

duck salad = assay: Test B flood test duck salad; format: in vivo, Heteranthera limosa
Outline: as §2

soybean = assay: Test B pre/postemergence soybean; format: in vivo, Glycine max
Outline: as §1

surinam grass = assay: Test B pre/postemergence surinam grass; format: in vivo, Brachiaria decumbens
Outline: as §1

velvetleaf = assay: Test B pre/postemergence velvetleaf; format: in vivo, Abutilon theophrasti
Outline: as §1

bedstraw = assay: Test B pre/postemergence bedstraw; format: in vivo, Galium aparine; details: Postemergence
Outline: as §1

[1] = Postemergence, Rate 250 g/ha, scale 0 to 10, 0 is no effect, 10 is complete control
[2] = Postemergence, Rate 500 g/ha, scale of 0 to 10 where 0 is no effect and 10 is complete control
[3] = Preemergence, Rate 62 g/ha, scale 0 to 10 (0 no effect, 10 complete control)
[4] = Preemergence, Rate 125 g/ha, scale of 0 to 10 where 0 is no effect and 10 is complete control
[5] = Preemergence, Rate 250 g/ha, scale 0 to 10, 0 is no effect, 10 is complete control
[6] = Preemergence, Rate 500 g/ha, scale 0 to 10, 0 is no effect, 10 is complete control
[7] = Postemergence, Rate 125 g/ha, scale 0 to 10, 0 is no effect, 10 is complete control
[8] = Preemergence, Rate 250 g/ha, scale of 0 to 10 where 0 is no effect and 10 is complete control
[9] = Rate 62 g/ha, Postemergence, scale of 0 to 10 where 0 is no effect and 10 is complete control
[10] = Postemergence section (flood test species), Rate 500 g/ha, scale of 0 to 10 where 0 is no effect and 10 is complete control
[11] = flood test species, listed under Postemergence, Rate 250 g/ha, scale 0 to 10, 0 is no effect, 10 is complete control
[12] = Rate 62 g/ha, Postemergence (flood test species), scale of 0 to 10 where 0 is no effect and 10 is complete control
[13] = Rate 125 g/ha, scale 0 to 10, 0 is no effect, 10 is complete control
[14] = Rate 500 g/ha, scale of 0 to 10 where 0 is no effect and 10 is complete control
[15] = Postemergence, Rate 250 g/ha, scale 0 to 10
[16] = Rate 125 g/ha, Postemergence, scale 0 to 10, 0 is no effect, 10 is complete control
[17] = Postemergence block (flood test species), Rate 250 g/ha, scale 0 to 10
[18] = Rate 125 g/ha, Postemergence section (flood test species), scale 0 to 10, 0 is no effect, 10 is complete control

CSCCn1c(=O)on(C(=O)N(c2ccccc2)C(C)C)c1=O [Compound 419]
Plant response rating, Nutsedge (purple nutsedge; [1]): 0
Nutsedge plant response rating (purple nutsedge; [2]): 0
Plant response rating, Nutsedge (purple nutsedge; [3]): 0
Plant response rating, Nutsedge (purple nutsedge; [4]): 0
Nutsedge plant response rating (purple nutsedge; [5]): 0
Nutsedge plant response rating (purple nutsedge; [6]): 0
Wheat plant response rating (wheat; [2]): 0
Plant response rating, Wheat (wheat; [3]): 0
Plant response rating, Wheat (wheat; [4]): 0
Wheat plant response rating (wheat; [5]): 0
Wheat plant response rating (wheat; [6]): 0
Plant response rating, Blackgrass (blackgrass; [7]): 0
Plant response rating, Blackgrass (blackgrass; [1]): 0
Blackgrass plant response rating (blackgrass; [2]): 4
Plant response rating, Blackgrass (blackgrass; [3]): 0
Plant response rating, Blackgrass (blackgrass; [4]): 0
Blackgrass plant response rating (blackgrass; [8]): 0
Blackgrass plant response rating (blackgrass; [6]): 3
Blackgrass plant response rating (blackgrass; [9]): 0
Rice plant response rating (rice; [10]): 2
Plant response rating, Rice (rice; [11]): 0
S. Flatsedge plant response rating (smallflower flatsedge; [10]): 3
Plant response rating, S. Flatsedge (smallflower flatsedge; [11]): 0
Plant response rating, Corn (corn; [7]): 0
Plant response rating, Corn (corn; [1]): 0
Corn plant response rating (corn; [2]): 0
Plant response rating, Corn (corn; [3]): 0
Plant response rating, Corn (corn; [4]): 0
Corn plant response rating (corn; [5]): 0
Corn plant response rating (corn; [6]): 0
Corn plant response rating (corn; [9]): 0
Plant response rating, Redroot pigweed (pigweed; [1]): 0
Redroot pigweed plant response rating (pigweed; [2]): 0
Plant response rating, Redroot pigweed (pigweed; [3]): 0
Plant response rating, Redroot pigweed (pigweed; [4]): 0
Redroot pigweed plant response rating (pigweed; [5]): 6
Redroot pigweed plant response rating (pigweed; [6]): 10
Wild oats plant response rating (wild oat; [2]): 0
Plant response rating, Wild oats (wild oat; [3]): 0
Plant response rating, Wild oats (wild oat; [4]): 0
Wild oats plant response rating (wild oat; [5]): 0
Wild oats plant response rating (wild oat; [6]): 2
Plant response rating, Sugarbeets (sugar beet; [1]): 0
Sugarbeets plant response rating (sugar beet; [2]): 0
Plant response rating, Sugarbeets (sugar beet; [3]): 0
Plant response rating, Sugarbeets (sugar beet; [4]): 0
Sugarbeets plant response rating (sugar beet; [5]): 3
Sugarbeets plant response rating (sugar beet; [6]): 5
Plant response rating, Crabgrass (crabgrass; [7]): 0
Plant response rating, Crabgrass (crabgrass; [1]): 0
Crabgrass plant response rating (crabgrass; [2]): 1
Plant response rating, Crabgrass (crabgrass; [3]): 0
Plant response rating, Crabgrass (crabgrass; [4]): 1
Crabgrass plant response rating (crabgrass; [5]): 4
Crabgrass plant response rating (crabgrass; [6]): 9
Crabgrass plant response rating (crabgrass; [9]): 0
Plant response rating, Rape (rape; [1]): 0
Rape plant response rating (rape; [2]): 0
Plant response rating, Rape (rape; [3]): 0
Plant response rating, Rape (rape; [4]): 0
Rape plant response rating (rape; [5]): 2
Rape plant response rating (rape; [6]): 2
Plant response rating, Ducksalad (duck salad; Postemergence (flood test), Rate 125 g/ha, scale 0 to 10, 0 is no effect, 10 is complete control): 0
Ducksalad plant response rating (duck salad; [10]): 0
Ducksalad plant response rating (duck salad; [12]): 0
Plant response rating, Ducksalad (duck salad; [11]): 0
Plant response rating, Soybean (soybean; [1]): 3
Soybean plant response rating (soybean; [2]): 3
Plant response rating, Soybean (soybean; [3]): 0
Plant response rating, Soybean (soybean; [4]): 0
Soybean plant response rating (soybean; [5]): 0
Soybean plant response rating (soybean; [6]): 0
Plant response rating, B. signalgrass (surinam grass; [7]): 0
Plant response rating, B. signalgrass (surinam grass; [1]): 0
B. signalgrass plant response rating (surinam grass; [2]): 2
Plant response rating, B. signalgrass (surinam grass; [3]): 0
Plant response rating, B. signalgrass (surinam grass; [4]): 0
B. signalgrass plant response rating (surinam grass; [8]): 2
B. signalgrass plant response rating (surinam grass; Preemergence, Rate 500 g/ha, scale of 0 to 10 where 0 is no effect and 10 is complete control): 8
B. signalgrass plant response rating (surinam grass; [9]): 0
Plant response rating, Velvetleaf (velvetleaf; [1]): 0
Velvetleaf plant response rating (velvetleaf; [2]): 2
Plant response rating, Velvetleaf (velvetleaf; [3]): 0
Plant response rating, Velvetleaf (velvetleaf; [4]): 0
Velvetleaf plant response rating (velvetleaf; [5]): 1
Velvetleaf plant response rating (velvetleaf; [6]): 4
Plant response rating, Bedstraw (bedstraw; [13]): 0
Plant response rating, Bedstraw (bedstraw; Rate 250 g/ha, scale 0 to 10, 0 is no effect, 10 is complete control): 0
Bedstraw plant response rating (bedstraw; [14]): 0
Bedstraw plant response rating (bedstraw; Rate 62 g/ha, scale of 0 to 10 where 0 is no effect and 10 is complete control): 0

CC(C)N(C(=O)n1oc(=O)n(CC2=NOCCC2)c1=O)c1ccccc1 [Compound 430]
Nutsedge plant response rating (purple nutsedge; [15]): 2
Nutsedge plant response rating (purple nutsedge; [2]): 6
Plant response rating, Nutsedge (purple nutsedge; [3]): 0
Plant response rating, Nutsedge (purple nutsedge; [4]): 0
Nutsedge plant response rating (purple nutsedge; [5]): 0
Nutsedge plant response rating (purple nutsedge; [6]): 0
Nutsedge plant response rating (purple nutsedge; [16]): 0
Wheat plant response rating (wheat; [15]): 0
Wheat plant response rating (wheat; [2]): 0
Plant response rating, Wheat (wheat; [3]): 0
Plant response rating, Wheat (wheat; [4]): 0
Wheat plant response rating (wheat; [5]): 0
Wheat plant response rating (wheat; [6]): 5
Wheat plant response rating (wheat; [16]): 0
Blackgrass plant response rating (blackgrass; [15]): 7
Blackgrass plant response rating (blackgrass; [2]): 8
Plant response rating, Blackgrass (blackgrass; [3]): 0
Plant response rating, Blackgrass (blackgrass; [4]): 3
Blackgrass plant response rating (blackgrass; [5]): 7
Blackgrass plant response rating (blackgrass; [6]): 9
Blackgrass plant response rating (blackgrass; [9]): 2
Blackgrass plant response rating (blackgrass; [16]): 3
Rice plant response rating (rice; [17]): 0
Rice plant response rating (rice; [10]): 0
Rice plant response rating (rice; [18]): 0
S. Flatsedge plant response rating (smallflower flatsedge; [17]): 0
S. Flatsedge plant response rating (smallflower flatsedge; [10]): 0
S. Flatsedge plant response rating (smallflower flatsedge; [18]): 0
Corn plant response rating (corn; [15]): 2
Corn plant response rating (corn; [2]): 4
Plant response rating, Corn (corn; [3]): 0
Plant response rating, Corn (corn; [4]): 0
Corn plant response rating (corn; [5]): 0
Corn plant response rating (corn; [6]): 2
Corn plant response rating (corn; [9]): 0
Corn plant response rating (corn; [16]): 0
Redroot pigweed plant response rating (pigweed; [15]): 3
Redroot pigweed plant response rating (pigweed; [2]): 3
Plant response rating, Redroot pigweed (pigweed; [3]): 0
Plant response rating, Redroot pigweed (pigweed; [4]): 0
Redroot pigweed plant response rating (pigweed; [5]): 2
Redroot pigweed plant response rating (pigweed; [6]): 7
Redroot pigweed plant response rating (pigweed; [16]): 2
Wild oats plant response rating (wild oat; [15]): 0
Wild oats plant response rating (wild oat; [2]): 0
Plant response rating, Wild oats (wild oat; [3]): 0
Plant response rating, Wild oats (wild oat; [4]): 0
Wild oats plant response rating (wild oat; [5]): 3
Wild oats plant response rating (wild oat; [6]): 3
Wild oats plant response rating (wild oat; [16]): 0
Sugarbeets plant response rating (sugar beet; [15]): 0
Sugarbeets plant response rating (sugar beet; [2]): 0
Plant response rating, Sugarbeets (sugar beet; [3]): 0
Plant response rating, Sugarbeets (sugar beet; [4]): 0
Sugarbeets plant response rating (sugar beet; [5]): 0
Sugarbeets plant response rating (sugar beet; [6]): 0
Sugarbeets plant response rating (sugar beet; [16]): 0
Crabgrass plant response rating (crabgrass; [15]): 8
Crabgrass plant response rating (crabgrass; [2]): 9
Plant response rating, Crabgrass (crabgrass; [3]): 9
Plant response rating, Crabgrass (crabgrass; [4]): 10
Crabgrass plant response rating (crabgrass; [5]): 10
Crabgrass plant response rating (crabgrass; [6]): 10
Crabgrass plant response rating (crabgrass; [9]): 1
Crabgrass plant response rating (crabgrass; [16]): 2
Rape plant response rating (rape; [15]): 0
Rape plant response rating (rape; [2]): 0
Plant response rating, Rape (rape; [3]): 0
Plant response rating, Rape (rape; [4]): 0
Rape plant response rating (rape; [5]): 0
Rape plant response rating (rape; [6]): 4
Rape plant response rating (rape; [16]): 0
Ducksalad plant response rating (duck salad; [17]): 0
Ducksalad plant response rating (duck salad; [10]): 0
Ducksalad plant response rating (duck salad; [12]): 0
Ducksalad plant response rating (duck salad; [18]): 0
Soybean plant response rating (soybean; [15]): 3
Soybean plant response rating (soybean; [2]): 3
Plant response rating, Soybean (soybean; [3]): 0
Plant response rating, Soybean (soybean; [4]): 0
Soybean plant response rating (soybean; [5]): 0
Soybean plant response rating (soybean; [6]): 0
Soybean plant response rating (soybean; [16]): 1
B. signalgrass plant response rating (surinam grass; Postemergence, Rate 250 g/ha, scale 0 to 10, 0 no effect, 10 complete control): 6
B. signalgrass plant response rating (surinam grass; [2]): 8
Plant response rating, B. signalgrass (surinam grass; [3]): 1
Plant response rating, B. signalgrass (surinam grass; [4]): 2
B. signalgrass plant response rating (surinam grass; [5]): 3
B. signalgrass plant response rating (surinam grass; [6]): 3
B. signalgrass plant response rating (surinam grass; [9]): 0
B. signalgrass plant response rating (surinam grass; [16]): 1
Velvetleaf plant response rating (velvetleaf; [15]): 0
Velvetleaf plant response rating (velvetleaf; [2]): 3
Plant response rating, Velvetleaf (velvetleaf; [3]): 0
Plant response rating, Velvetleaf (velvetleaf; [4]): 2
Velvetleaf plant response rating (velvetleaf; [5]): 4
Velvetleaf plant response rating (velvetleaf; [6]): 7
Velvetleaf plant response rating (velvetleaf; [16]): 0
Bedstraw plant response rating (bedstraw; Rate 250 g/ha, scale 0 to 10): 0
Bedstraw plant response rating (bedstraw; [14]): 3
Bedstraw plant response rating (bedstraw; [13]): 0
